Legend:
soybean [1] = experiment: Test A postemergence; format: in vivo, Glycine max; settings: 500 g ai/ha, postemergence, 10 days, visual injury, 0 to 100 scale (0 no effect, 100 complete control)
Procedure, shortened: (§1)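 Loam/sand soil; pre-em directed soil spray at planting, post-em spray at 1–2 leaf (2–10 cm). Compound in non-phytotoxic solvent + surfactant. Greenhouse 10 d; visual injury vs untreated, 0 = no effect, 100 = complete control.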

ragweed [2] = experiment: Test A postemergence; format: in vivo, Ambrosia artemisiifolia; settings: 500 g ai/ha, postemergence, 10 days, visual injury, 0 to 100 scale (0 no effect, 100 complete control)
Procedure, shortened: as §1

corn [3] = experiment: Test A preemergence; format: in vivo, Zea mays
Procedure, shortened: as §1

barnyardgrass = experiment: Test B flooded paddy test; format: in vivo, Echinochloa crus-galli; settings: 250 g ai/ha, Flood, 13 days, 0 to 100 scale (0 no effect, 100 complete control)
Procedure, shortened: (§2)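 Compound is introduced into paddy water covering soil by 3 cm, treating plants that have reached two leaves. Pots are kept flooded at that depth under greenhouse conditions. Assessment at 13 days gives a 0–100 visual control score.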

goosegrass [4] = experiment: Test A postemergence; format: in vivo, Eleusine indica; settings: postemergence, 10 days, visual injury, 0 to 100 scale (0 no effect, 100 complete control)
Procedure, shortened: as §1

oat, wild [5] = experiment: Test A postemergence; format: in vivo, Avena fatua; settings: 500 g ai/ha, postemergence, 10 days, visual injury, 0 to 100 scale (0 no effect, 100 complete control)
Procedure, shortened: as §1

pigweed, palmer [6] = experiment: Test A postemergence; format: in vivo, Amaranthus palmeri; settings: 500 g ai/ha, postemergence, 10 days, visual injury, 0 to 100 scale (0 no effect, 100 complete control)
Procedure, shortened: as §1

soybean [7] = experiment: Test A preemergence; format: in vivo, Glycine max
Procedure, shortened: as §1

horseweed = experiment: Test A postemergence; format: in vivo, Erigeron canadensis; settings: postemergence, 10 days, visual injury, 0 to 100 scale (0 no effect, 100 complete control)
Procedure, shortened: as §1

wheat [8] = experiment: Test A preemergence; format: in vivo, Triticum aestivum
Procedure, shortened: as §1

blackgrass [9] = experiment: Test A postemergence; format: in vivo, Alopecurus myosuroides
Procedure, shortened: as §1

rice = experiment: Test B flooded paddy test; format: in vivo, Oryza sativa; settings: 250 g ai/ha, Flood, 13 days, 0 to 100 scale (0 no effect, 100 complete control)
Procedure, shortened: as §2

kochia [10] = experiment: Test A postemergence; format: in vivo, Bassia scoparia; settings: postemergence, 10 days, visual injury, 0 to 100 scale (0 no effect, 100 complete control)
Procedure, shortened: as §1

foxtail, giant [11] = experiment: Test A preemergence; format: in vivo, Setaria faberi
Procedure, shortened: as §1

ducksalad = experiment: Test B flooded paddy test; format: in vivo, Heteranthera limosa; settings: 250 g ai/ha, Flood, 13 days, 0 to 100 scale (0 no effect, 100 complete control)
Procedure, shortened: as §2

ryegrass, Italian [12] = experiment: Test A postemergence; format: in vivo, Lolium multiflorum; settings: 500 g ai/ha, postemergence, 10 days, visual injury, 0 to 100 scale (0 no effect, 100 complete control)
Procedure, shortened: as §1

foxtail, giant [13] = experiment: Test A postemergence; format: in vivo, Setaria faberi; settings: postemergence, 10 days, visual injury, 0 to 100 scale (0 no effect, 100 complete control)
Procedure, shortened: as §1

oat, wild [14] = experiment: Test A preemergence; format: in vivo, Avena fatua
Procedure, shortened: as §1

blackgrass [15] = experiment: Test A preemergence; format: in vivo, Alopecurus myosuroides
Procedure, shortened: as §1

kochia [16] = experiment: Test A preemergence; format: in vivo, Bassia scoparia
Procedure, shortened: as §1

corn [17] = experiment: Test A postemergence; format: in vivo, Zea mays; settings: postemergence, 10 days, visual injury, 0 to 100 scale (0 no effect, 100 complete control)
Procedure, shortened: as §1

ryegrass, Italian [18] = experiment: Test A preemergence; format: in vivo, Lolium multiflorum
Procedure, shortened: as §1

galium = experiment: Test A postemergence; format: in vivo, Galium aparine; settings: postemergence, 10 days, visual injury, 0 to 100 scale (0 no effect, 100 complete control)
Procedure, shortened: as §1

pigweed, palmer [19] = experiment: Test A preemergence; format: in vivo, Amaranthus palmeri
Procedure, shortened: as §1

ragweed [20] = experiment: Test A preemergence; format: in vivo, Ambrosia artemisiifolia
Procedure, shortened: as §1

wheat [21] = experiment: Test A postemergence; format: in vivo, Triticum aestivum; settings: 500 g ai/ha, postemergence, 10 days, visual injury, 0 to 100 scale (0 no effect, 100 complete control)
Procedure, shortened: as §1

goosegrass [22] = experiment: Test A preemergence; format: in vivo, Eleusine indica
Procedure, shortened: as §1

sedge, umbrella = experiment: Test B flooded paddy test; format: in vivo, Cyperus difformis; settings: 250 g ai/ha, Flood, 13 days, 0 to 100 scale (0 no effect, 100 complete control)
Procedure, shortened: as §2

[23] = 125 g ai/ha, visual injury after 10 days, 0 to 100 scale, 0 is no effect, 100 is complete control
[24] = 500 g ai/ha, 0 to 100 scale (0 no effect, 100 complete control), 10 days
[25] = 125 g ai/ha, postemergence, 10 days, visual injury, 0 to 100 scale (0 no effect, 100 complete control)
[26] = 500 g ai/ha, Postemergence, 0 to 100 scale

Cc1cccc2c1O[C@@H](C)CN2C(=O)c1cccc(-n2cnc(C(F)(F)F)n2)c1 [Compound 66]
Plant response rating, Soybean (soybean [1]): 100
Plant response rating, Ragweed (ragweed [2]): 40
Plant response rating, Corn (corn [3]; [23]): 30
Plant response rating, Corn (corn [3]; [24]): 50
Plant response rating, Barnyardgrass (barnyardgrass): 0
Plant response rating, Goosegrass (goosegrass [4]; 125 g ai/ha): 10
Plant response rating, Goosegrass (goosegrass [4]; 500 g ai/ha): 50
Plant response rating, Oat, Wild (oat, wild [5]): 70
Plant response rating, Pigweed, Palmer (pigweed, palmer [6]): 30
Plant response rating, Soybean (soybean [7]; [23]): 30
Plant response rating, Soybean (soybean [7]; [24]): 40
Plant response rating, Horseweed (horseweed; 125 g ai/ha): 0
Plant response rating, Horseweed (horseweed; 500 g ai/ha): 0
Plant response rating, Wheat (wheat [8]; [23]): 20
Plant response rating, Wheat (wheat [8]; [24]): 80
Plant response rating, Blackgrass (blackgrass [9]; [25]): 60
Plant response rating, Blackgrass (blackgrass [9]; [26]): 90
Plant response rating, Rice (rice): 0
Plant response rating, Kochia (kochia [10]; 125 g ai/ha): 30
Plant response rating, Kochia (kochia [10]; 500 g ai/ha): 80
Plant response rating, Foxtail, Giant (foxtail, giant [11]; [23]): 90
Plant response rating, Foxtail, Giant (foxtail, giant [11]; [24]): 100
Plant response rating, Ducksalad (ducksalad): 0
Plant response rating, Ryegrass, Italian (ryegrass, Italian [12]): 70
Plant response rating, Foxtail, Giant (foxtail, giant [13]; 125 g ai/ha): 20
Plant response rating, Foxtail, Giant (foxtail, giant [13]; 500 g ai/ha): 90
Plant response rating, Oat, Wild (oat, wild [14]; [23]): 30
Plant response rating, Oat, Wild (oat, wild [14]; [24]): 90
Plant response rating, Blackgrass (blackgrass [15]; [23]): 70
Plant response rating, Blackgrass (blackgrass [15]; [24]): 90
Plant response rating, Kochia (kochia [16]; [23]): 10
Plant response rating, Kochia (kochia [16]; [24]): 90
Plant response rating, Corn (corn [17]; 125 g ai/ha): 0
Plant response rating, Corn (corn [17]; 500 g ai/ha): 70
Plant response rating, Ryegrass, Italian (ryegrass, Italian [18]; [23]): 100
Plant response rating, Ryegrass, Italian (ryegrass, Italian [18]; [24]): 100
Plant response rating, Galium (galium; 125 g ai/ha): 80
Plant response rating, Galium (galium; 500 g ai/ha): 100
Plant response rating, Pigweed, Palmer (pigweed, palmer [19]; [23]): 50
Plant response rating, Pigweed, Palmer (pigweed, palmer [19]; [24]): 100
Plant response rating, Ragweed (ragweed [20]; [23]): 0
Plant response rating, Ragweed (ragweed [20]; [24]): 0
Plant response rating, Wheat (wheat [21]): 20
Plant response rating, Goosegrass (goosegrass [22]; [23]): 100
Plant response rating, Goosegrass (goosegrass [22]; [24]): 100
Plant response rating, Sedge, Umbrella (sedge, umbrella): 0

Cc1ccc(-n2cnc(C3CC3)n2)cc1C(=O)N1C[C@H](C)Oc2c(Cl)cccc21 [Compound 67]
Plant response rating, Soybean (soybean [1]): 100
Plant response rating, Ragweed (ragweed [2]): 70
Plant response rating, Corn (corn [3]; [23]): 40
Plant response rating, Corn (corn [3]; [24]): 50
Plant response rating, Barnyardgrass (barnyardgrass): 0
Plant response rating, Goosegrass (goosegrass [4]; 125 g ai/ha): 30
Plant response rating, Goosegrass (goosegrass [4]; 500 g ai/ha): 70
Plant response rating, Oat, Wild (oat, wild [5]): 60
Plant response rating, Pigweed, Palmer (pigweed, palmer [6]): 90
Plant response rating, Soybean (soybean [7]; [23]): 50
Plant response rating, Soybean (soybean [7]; [24]): 70
Plant response rating, Horseweed (horseweed; 125 g ai/ha): 30
Plant response rating, Horseweed (horseweed; 500 g ai/ha): 30
Plant response rating, Wheat (wheat [8]; [23]): 10
Plant response rating, Wheat (wheat [8]; [24]): 30
Plant response rating, Blackgrass (blackgrass [9]; [25]): 70
Plant response rating, Blackgrass (blackgrass [9]; [26]): 90
Plant response rating, Rice (rice): 0
Plant response rating, Kochia (kochia [10]; 125 g ai/ha): 70
Plant response rating, Kochia (kochia [10]; 500 g ai/ha): 100
Plant response rating, Foxtail, Giant (foxtail, giant [11]; [23]): 100
Plant response rating, Foxtail, Giant (foxtail, giant [11]; [24]): 100
Plant response rating, Ducksalad (ducksalad): 30
Plant response rating, Ryegrass, Italian (ryegrass, Italian [12]): 100
Plant response rating, Foxtail, Giant (foxtail, giant [13]; 125 g ai/ha): 50
Plant response rating, Foxtail, Giant (foxtail, giant [13]; 500 g ai/ha): 90
Plant response rating, Oat, Wild (oat, wild [14]; [23]): 30
Plant response rating, Oat, Wild (oat, wild [14]; [24]): 90
Plant response rating, Blackgrass (blackgrass [15]; [23]): 80
Plant response rating, Blackgrass (blackgrass [15]; [24]): 90
Plant response rating, Kochia (kochia [16]; [23]): 80
Plant response rating, Kochia (kochia [16]; [24]): 100
Plant response rating, Corn (corn [17]; 125 g ai/ha): 60
Plant response rating, Corn (corn [17]; 500 g ai/ha): 60
Plant response rating, Ryegrass, Italian (ryegrass, Italian [18]; [23]): 100
Plant response rating, Ryegrass, Italian (ryegrass, Italian [18]; [24]): 100
Plant response rating, Galium (galium; 125 g ai/ha): 100
Plant response rating, Galium (galium; 500 g ai/ha): 100
Plant response rating, Pigweed, Palmer (pigweed, palmer [19]; [23]): 100
Plant response rating, Pigweed, Palmer (pigweed, palmer [19]; [24]): 100
Plant response rating, Ragweed (ragweed [20]; [23]): 0
Plant response rating, Ragweed (ragweed [20]; [24]): 30
Plant response rating, Wheat (wheat [21]): 30
Plant response rating, Goosegrass (goosegrass [22]; [23]): 100
Plant response rating, Goosegrass (goosegrass [22]; [24]): 100
Plant response rating, Sedge, Umbrella (sedge, umbrella): 75

From patent US20260262643A1, “HERBICIDAL BENZOXAZINES” (FMC CORPORATION, priority 2022, published 2026)
